Experimental data: patent publication US20140102978A1, “Composition and Method for Remediation of Contaminated Water” (JRW BIOREMEDIATION LLC, priority 2012, published 2014)

Assay: Thiosulfate/Gluconate physical compatibility screening
Assay type: physicochemical
Details: heated to no more than 115° F, visual and olfactory
Description: The final solution was stored at room temperature for 15 days and then examined to determine relative storage stability.

ferrous gluconate
Observation (1 g ferrous gluconate (Mole % 4%) added to 25 g sodium thiosulfate): Mild odor, dissolved when warmed
Observation (2 g ferrous gluconate (Mole % 7%) added to 25 g sodium thiosulfate): Mild odor, dissolved when warmed
Observation (3 g ferrous gluconate (Mole % 11%) added to 25 g sodium thiosulfate): Mod odor, dissolved when warmed
Observation (4.5 g ferrous gluconate (Mole % 16%) added to 25 g sodium thiosulfate): Mod odor, dissolved when warmed
Observation (5 g ferrous gluconate (Mole % 19%) added to 25 g sodium thiosulfate): Mod odor, dissolved when warmed
Observation (6 g ferrous gluconate (Mole % 22%) added to 25 g sodium thiosulfate): Mod odor, dissolved when warmed
Observation (7 g ferrous gluconate (Mole % 26%) added to 25 g sodium thiosulfate): Mod odor, dissolved when warmed
Observation (8 g ferrous gluconate (Mole % 30%) added to 25 g sodium thiosulfate): Mod odor, dissolved when warmed
Observation (9 g ferrous gluconate (Mole % 33%) added to 25 g sodium thiosulfate): Mod odor, dissolved when warmed
Observation (10 g ferrous gluconate (Mole % 37%) added to 25 g sodium thiosulfate): Mod odor, dissolved when warmed
Observation (14 g ferrous gluconate (Mole % 52%) added to 25 g sodium thiosulfate): Mod odor, dissolved when warmed
